The nature of the data set: solvent given as SMILES.
Where [1] appears, read: in O=P(c1ccccc1)(c1ccccc1)c1ccccc1Oc1ccccc1P(=O)(c1ccccc1)c1ccccc1.

In the Deep4Chem optical property database one finds emission maximum data, which are given here for 44 compounds.

`COc1cccc(/C=C/c2ccccc2)c1`: the emission maximum by setting is: (in C1CCCCC1) 358 nm; (in CC#N) 359 nm; (in CC(C)O) 357 nm; (in CCCCOCCCC) 358 nm; (in CCOC(C)=O) 358 nm; (in CCOCC) 357 nm.

For the setting “in ClCCl”, `CC(C)c1cccc(C(C)C)c1N1C(=O)c2cccc3c(Oc4ccccc4)ccc(c23)C1=O` had an emission maximum of 425 nm.

`CC(C)(C)c1ccc(-n2c(-c3ccc(-c4ccc(N(c5ccccc5)c5ccccc5)cc4)cc3)nc3c4ccccc4c4ccccc4c32)cc1` registered an emission maximum (in ClCCl) of 442 nm.

In the case of `Clc1ccc(N2c3sc4ccccc4c3Sc3c2sc2ccccc32)cc1`, the emission maximum (in ClCCl) is 546 nm.

For `Cc1cn2cc(-c3ccccc3)[n-][n+]2c1`, the emission maximum (in ClCCl) came out at 422 nm.

Consider `C[Si](C)(C)c1ccc(-c2ccc(-c3ccc(-c4ccc(-c5ccc([Si](C)(C)C)s5)cc4)c4nsnc34)cc2)s1`, for which the emission maximum (in C1CCOC1) was 540 nm.

`CCCCCCc1ccc(/C=C/c2ccc(CCCCCC)s2)s1`: the emission maximum (in Cc1ccccc1) was determined as 416 nm.

As to `CN(C)c1ccc(C#Cc2nc(-c3ccccc3)nc3ccccc23)cc1`, the emission maximum was 423 nm (in C1CCCCC1); 549 nm (in C1CCOC1); 570 nm (in CC#N); 584 nm (in CS(C)=O); 551 nm (in ClCCl).

In the case of `Oc1cc(-c2cccs2)ccc1-c1nc2ccccc2s1`, the emission maximum is reported as 408 nm (in CCO), 515 nm (in ClCCl) and 517 nm (in O).

In the case of `O=C1NC(c2ccccc2)=C/C1=C\c1ccccc1`, the emission maximum (in C1COCCO1) came out at 539 nm.

Regarding `O=C1O[B-]2(OC1=O)OC(c1ccccc1)=CC(c1ccc3ccccc3c1)=[O+]2`, the emission maximum runs as follows: (in CC#N) 555 nm; (in ClC(Cl)(Cl)Cl) 451 nm.

`C(=C\c1c2ccccc2cc2ccccc12)/c1c2ccccc2cc2ccccc12` gave an emission maximum (in C1CCOC1) of 650 nm.

For the compound `CCCCN(CCCC)c1ccc(C#Cc2cc(C#Cc3ccc(N(CCCC)CCCC)cc3)c(C#Cc3ccc([N+](=O)[O-])cc3)cc2C#Cc2ccc([N+](=O)[O-])cc2)cc1`, for the setting “in ClCCl”, the emission maximum came out at 552 nm.

As for `CCN1C(=CC2=C([O-])C(=Cc3sc4ccccc4[n+]3CC)C2=O)Sc2ccccc21`, the emission maximum reads like this: (in CO) 663 nm; (in ClC(Cl)Cl) 687 nm.

Turning to `CC(C)(C)c1ccc2c(c1)c1cc(C(C)(C)C)ccc1n2-c1cccc(-c2nc(-c3cccc(P(=O)(c4ccccc4)c4ccccc4)c3)nc(-c3cccc(P(=O)(c4ccccc4)c4ccccc4)c3)n2)c1`, the emission maximum turned out to be 511.91 nm (in C1CCOC1); 581.72 nm (in CC#N); 554.6 nm (in CC(C)=O); 567.81 nm (in CN(C)C=O); 480.78 nm (in Cc1ccccc1); 512.5 nm (in ClC(Cl)Cl). Also, the emission maximum (in ClCCl) worked out at 535.02 nm and the emission maximum under setting [1] was 484 nm.

For `CCCCCCc1cc2c3c(c1)c(=C1c4ccccc4Sc4ccccc41)c1cc(CCCCCC)cc4c1N3c1c(cc(CCCCCC)cc1c4=C1c3ccccc3Sc3ccccc31)c2=C1c2ccccc2Sc2ccccc21`, the emission maximum (in ClCCl) was 498 nm.

Where the note is “in ClC(Cl)Cl”, `c1ccc(-c2ccc(-c3nc(-c4ccccc4)c(N(c4ccccc4)c4ccccc4)[se]3)cc2)cc1` displayed an emission maximum of 468 nm.

The compound `CCCCCCc1sc(CCCCCC)c2c3ccsc3c3sccc3c12` yielded an emission maximum (in ClC(Cl)Cl) of 425 nm.

As to `c1cc2ccc3ccc(OP4(Oc5ccc6ccc7cccc8ccc5c6c78)=NP(Oc5ccc6ccc7cccc8ccc5c6c78)(Oc5ccc6ccc7cccc8ccc5c6c78)=NP(Oc5ccc6ccc7cccc8ccc5c6c78)(Oc5ccc6ccc7cccc8ccc5c6c78)=N4)c4ccc(c1)c2c34`, the emission maximum (in ClCCl) was 459 nm.

`Cc1cc(-c2ccc(-n3c4ccccc4c4ccccc43)cc2)nc(-c2ccc(-n3c4ccccc4c4ccccc43)cc2)n1`: the emission maximum by setting is: (in C1CCOC1) 423 nm; (in CN(C)C=O) 461 nm; (in Cc1ccccc1) 398 nm; (in ClC(Cl)Cl) 426 nm.

Under “in C1CCOC1”, `CC1(C)c2cc(/C=C/c3nc(/C=C/c4ccc5c(c4)C(C)(C)c4cc(N(c6ccccc6)c6ccccc6)ccc4-5)nc(/C=C/c4ccc5c(c4)C(C)(C)c4cc(N(c6ccccc6)c6ccccc6)ccc4-5)n3)ccc2-c2ccc(N(c3ccccc3)c3ccccc3)cc21` registered an emission maximum of 555 nm.

In turn, `O=C1CC(c2ccc(C(F)(F)F)cc2)c2c(c3ccccc3c3nc4ccccc4nc23)O1` (stereo unspecified) had an emission maximum (in ClC(Cl)Cl) of 433 nm.

`O=Cc1ccc(C#CC(C#Cc2ccc(C=O)o2)=Cc2ccc(C=C(C#Cc3ccc(C=O)o3)C#Cc3ccc(C=O)o3)cc2)o1` yielded an emission maximum (in ClC(Cl)Cl) of 518 nm.

Consider `Cc1cc2c3ccccc3n(C)c2c2c1c1ccccc1n2C`, for which the emission maximum (in ClCCl) turned out to be 391 nm.

Consider `COCCOCCOCCOc1cc(C=O)c(OCCOCCOCCOC)cc1C=O`, for which the emission maximum runs as follows: (in CC(C)(C)O) 478 nm; (in CC(C)CO) 479 nm; (in CC(C)O) 481 nm; (in CCCCO) 472 nm; (in CCCO) 471 nm; (in CCO) 465 nm. In addition, the emission maximum by setting is: (in CN(C)C=O) 464 nm; (in CNC=O) 450 nm; (in CO) 467 nm; (in NC=O) 458 nm; (in O) 495 nm.

Consider `COc1ccc(-c2oc3cccc4c5c(-c6ccc(OC)c(OC)c6)c(=N)oc6cccc(c2c34)c65)cc1OC`, for which the emission maximum (in ClC(Cl)Cl) is 510 nm.

On to `CC1(C)c2ccccc2N(c2ccc3c(c2)Oc2ccccc2S3(=O)=O)c2ccccc21`, for which the emission maximum by setting is: (in Cc1ccccc1) 451 nm; under setting [1], 458 nm.

The compound `COc1ccc(-c2cc(/C=C/c3ccc(N(c4ccccc4)c4ccccc4)cc3)c(C#N)c(N3CCCCC3)c2)cc1` registered an emission maximum (in CS(C)=O) of 520 nm.

In turn, `Cc1cn2cc(-c3ccc(-c4ccccc4)cc3)[n-][n+]2c1` showed an emission maximum (in ClCCl) of 466 nm.

For `CN1C(=CC2=C([O-])C(=CC3=[N+](C)c4ccc(Cl)cc4C3(C)C)C2=O)C(C)(C)c2cc(Cl)ccc21`, the emission maximum is, setting by setting: (in CO) 653 nm; (in ClC(Cl)Cl) 654 nm.

`COc1ccc(-c2c3cc4cc(C)sc4cc3c(-c3ccc(OC)cc3)c3cc4cc(C)sc4cc23)cc1` showed an emission maximum (in ClCCl) of 514 nm.

With `C(C#Cc1ccc2ccc3cccc4ccc1c2c34)#Cc1cccc2ccccc12`, the emission maximum (in C1CCCCC1) was determined as 411 nm, the emission maximum (in CC#N) stood at 420 nm, the emission maximum (in CO) is 414 nm and the emission maximum (in ClCCl) worked out at 420 nm.

With `COC(=O)C(NC(=O)OC(C)(C)C)c1ccc2oc(-c3ccc(O)cc3O)nc2c1` (stereo unspecified), the emission maximum reads like this: (in CC1CCCCC1) 470 nm; (in CC#N) 380 nm; (in CO) 365 nm.

Turning to `F[B-]1(F)N2C(=Nc3cccc4cccc2c34)c2cccc[n+]21`, the emission maximum came out at 413 nm (in CC#N), 383 nm (in CO), 498 nm (in CS(C)=O) and 384 nm (in Cc1ccccc1).

Regarding `Fc1ccc(-c2nc3n(c2-c2ccncc2)CCS3)cc1`, the emission maximum reads like this: (in C1CCCCC1) 397.5 nm; (in C1CCOC1) 414 nm; (in C1COCCO1) 412 nm; (in CC#N) 420 nm; (in CC(C)(C)O) 420 nm; (in CC(C)=O) 418 nm. Also, the emission maximum reads like this: (in CC(C)O) 436 nm; (in CCO) 438 nm; (in CCOC(C)=O) 414 nm; (in CN(C)C=O) 426 nm; (in CNC=O) 446 nm; (in CO) 439 nm. For the same compound, the emission maximum runs as follows: (in CS(C)=O) 436 nm; (in Cc1ccc(C)cc1) 411.5 nm; (in Cc1ccccc1) 412 nm; (in ClC(Cl)Cl) 413.5 nm; (in ClCCl) 415 nm; (in O) 415 nm. Besides, the emission maximum (in OCCO) is 440.5 nm and the emission maximum (in c1ccncc1) is 434 nm.

Where the note is “in ClCCl”, `CN(C)c1ccc(C2=C3C=C(c4ccc(C=O)cc4)S[C@]34c3ccccc3[C@H]2c2ccccc24)cc1` showed an emission maximum of 645 nm.

Take `CN(C)c1ccc2c3c(c(=O)oc2c1)C=c1cc2c(cc1O3)=[N+](CCC(=O)O)CCC2`: the emission maximum is, setting by setting: (in CC#N) 644 nm; (in CO) 640 nm; (in ClCCl) 638 nm; (in O) 641 nm.

As for `CCCC1=Cc2nc1ccc1[nH]c(cc1CCC)c1nc(c(NC(=O)CCCC(=O)OC)cc3[nH]c2cc3CCC)C(CCC)=C1`, where the note is “in Cc1ccccc1”, the emission maximum came out at 680 nm.

In the case of `Cc1csc(C)c1C1=C(c2c(C)sc(-c3ccc(-c4nc(-c5ccccc5)c(-c5ccccc5)[nH]4)cc3)c2C)C(F)(F)C(F)(F)C1(F)F`, the emission maximum (in C1CCOC1) turned out to be 410 nm.

`C(#Cc1ccc(-n2c3ccccc3c3ccccc32)cc1)c1ccccc1`: the emission maximum by setting is: (in CC#N) 443 nm; (in CO) 401 nm; (in Cc1ccccc1) 364 nm; (in ClC(Cl)Cl) 379 nm; (in ClCCl) 390 nm.

Turning to `CC(C)[Si](C#Cc1ccc(C#C[Si](C(C)C)(C(C)C)C(C)C)c2nc3c(ccc4ccccc43)nc12)(C(C)C)C(C)C`, where the note is “in CCCCCC”, the emission maximum is listed as 444 nm.

For the compound `Cn1c2ccccc2c(=O)c2ccccc21`, the emission maximum runs as follows: (in CS(C)=O) 417 nm; (in O) 430 nm.

For `COc1cccc(-c2[nH]c(=O)n3c2-c2ccccc2C3=O)c1O`, the emission maximum (in CC#N) stood at 478 nm, the emission maximum (in CO) was determined as 496 nm and the emission maximum (in ClCCl) came out at 471 nm.

As to `Cc1ccc(C2=C(c3ccc(C)cc3)c3cccc4c3c(cc3nc5ccccc5nc34)O2)cc1`, the emission maximum (in ClCCl) came out at 559 nm.
